Data taken from publication PMC7407272, “Induction of Lysosome Membrane Permeabilization as a Therapeutic Strategy to Target Pancreatic Cancer Stem Cells” (Cancers, 2020).

Tests used:
Assay in all cases: KINOMEscan
CASK = target: T1, CASK (Homo sapiens, UniProt O14936); type: binding; details: read-out: % Ctrl
T1 construct: purchased DiscoveRx KINOMEscan

CAMK1B = target: T2, CAMK1B (Homo sapiens, UniProt Q6P2M8); type: binding; details: read-out: % Ctrl
T2 construct: purchased DiscoveRx KINOMEscan
T2 sequence (Q6P2M8 whole entry): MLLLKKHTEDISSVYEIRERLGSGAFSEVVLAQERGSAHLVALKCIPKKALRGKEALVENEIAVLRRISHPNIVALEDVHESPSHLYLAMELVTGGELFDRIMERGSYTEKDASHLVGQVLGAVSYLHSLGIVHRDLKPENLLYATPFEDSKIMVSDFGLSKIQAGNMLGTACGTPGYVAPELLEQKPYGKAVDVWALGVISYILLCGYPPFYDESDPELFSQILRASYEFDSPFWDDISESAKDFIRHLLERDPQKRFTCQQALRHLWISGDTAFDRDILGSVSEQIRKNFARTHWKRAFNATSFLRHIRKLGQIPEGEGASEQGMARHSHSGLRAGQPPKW

VEGFR2 = target: T3, VEGFR2 (Homo sapiens, UniProt P35968); type: binding; details: read-out: % Ctrl
T3 construct: purchased DiscoveRx KINOMEscan

IRAK3 = target: T4, IRAK3 (Homo sapiens, UniProt Q9Y616); type: binding; details: read-out: % Ctrl
T4 construct: purchased DiscoveRx KINOMEscan
T4 sequence (Q9Y616 whole entry): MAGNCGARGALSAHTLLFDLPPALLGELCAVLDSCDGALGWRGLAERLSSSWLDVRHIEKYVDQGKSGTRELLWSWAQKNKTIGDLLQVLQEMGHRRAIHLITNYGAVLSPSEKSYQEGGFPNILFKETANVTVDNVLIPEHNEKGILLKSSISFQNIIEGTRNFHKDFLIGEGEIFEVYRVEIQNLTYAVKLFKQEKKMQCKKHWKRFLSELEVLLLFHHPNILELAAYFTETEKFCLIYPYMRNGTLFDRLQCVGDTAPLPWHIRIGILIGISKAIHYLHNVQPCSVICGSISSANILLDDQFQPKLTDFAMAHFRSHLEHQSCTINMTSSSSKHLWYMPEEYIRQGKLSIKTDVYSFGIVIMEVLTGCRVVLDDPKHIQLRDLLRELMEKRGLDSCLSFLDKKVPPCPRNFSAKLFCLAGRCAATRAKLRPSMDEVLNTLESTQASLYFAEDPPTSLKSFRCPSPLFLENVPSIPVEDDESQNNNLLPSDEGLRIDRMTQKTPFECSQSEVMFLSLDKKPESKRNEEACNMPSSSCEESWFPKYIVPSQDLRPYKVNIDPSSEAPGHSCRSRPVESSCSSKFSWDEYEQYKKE

PAK1 = target: T5, PAK1 (Homo sapiens, UniProt Q13153); type: binding; details: read-out: % Ctrl
T5 construct: purchased DiscoveRx KINOMEscan

PRKG2 = target: T6, PRKG2 (Homo sapiens, UniProt Q13237); type: binding; details: read-out: % Ctrl
T6 construct: purchased DiscoveRx KINOMEscan

EPHB3 = target: T7, EPHB3 (Homo sapiens, UniProt P54753); type: binding; details: read-out: % Ctrl
T7 construct: purchased DiscoveRx KINOMEscan

LRRK2 = target: T8, LRRK2 (Homo sapiens, UniProt Q5S007); type: binding; details: read-out: % Ctrl
T8 construct: purchased DiscoveRx KINOMEscan

MARK3 = target: T9, MARK3 (Homo sapiens, UniProt P27448); type: binding; details: read-out: % Ctrl
T9 construct: purchased DiscoveRx KINOMEscan

PKAC-alpha = target: T10, PKAC-alpha (Homo sapiens, UniProt P17612); type: binding; details: read-out: % Ctrl
T10 construct: purchased DiscoveRx KINOMEscan

CDK4 = target: T11, CDK4 (Homo sapiens, UniProt P11802); type: binding; details: read-out: % Ctrl
T11 construct: purchased DiscoveRx KINOMEscan
T11 sequence (P11802 whole entry): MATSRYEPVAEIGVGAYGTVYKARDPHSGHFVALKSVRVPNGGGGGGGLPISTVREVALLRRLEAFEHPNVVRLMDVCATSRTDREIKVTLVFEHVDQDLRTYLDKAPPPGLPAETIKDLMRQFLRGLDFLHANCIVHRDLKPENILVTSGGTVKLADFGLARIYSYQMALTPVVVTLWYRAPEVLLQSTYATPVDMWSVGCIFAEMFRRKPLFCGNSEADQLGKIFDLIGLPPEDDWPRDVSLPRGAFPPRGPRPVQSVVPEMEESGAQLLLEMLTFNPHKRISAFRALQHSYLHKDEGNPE

FRK = target: T12, FRK (Homo sapiens, UniProt P42685); type: binding; details: read-out: % Ctrl
T12 construct: purchased DiscoveRx KINOMEscan

ABL1(F317L)-P = target: T13, ABL1(F317L)-P (Homo sapiens, UniProt P00519, F317L); type: binding; details: read-out: % Ctrl
T13 construct: purchased DiscoveRx KINOMEscan

MEK4 = target: T14, MEK4 (Homo sapiens, UniProt P45985); type: binding; details: read-out: % Ctrl
T14 construct: purchased DiscoveRx KINOMEscan

AURKA = target: T15, AURKA (Homo sapiens, UniProt O14965); type: binding; details: read-out: % Ctrl
T15 construct: purchased DiscoveRx KINOMEscan

ZAK = target: T16, ZAK (Homo sapiens, UniProt Q9NYL2); type: binding; details: read-out: % Ctrl
T16 construct: purchased DiscoveRx KINOMEscan

FLT3(K663Q) = target: T17, FLT3(K663Q) (Homo sapiens, UniProt P36888, K663Q); type: binding; details: read-out: % Ctrl
T17 construct: purchased DiscoveRx KINOMEscan

EPHA3 = target: T18, EPHA3 (Homo sapiens, UniProt P29320); type: binding; details: read-out: % Ctrl
T18 construct: purchased DiscoveRx KINOMEscan
T18 sequence (P29320 21-983): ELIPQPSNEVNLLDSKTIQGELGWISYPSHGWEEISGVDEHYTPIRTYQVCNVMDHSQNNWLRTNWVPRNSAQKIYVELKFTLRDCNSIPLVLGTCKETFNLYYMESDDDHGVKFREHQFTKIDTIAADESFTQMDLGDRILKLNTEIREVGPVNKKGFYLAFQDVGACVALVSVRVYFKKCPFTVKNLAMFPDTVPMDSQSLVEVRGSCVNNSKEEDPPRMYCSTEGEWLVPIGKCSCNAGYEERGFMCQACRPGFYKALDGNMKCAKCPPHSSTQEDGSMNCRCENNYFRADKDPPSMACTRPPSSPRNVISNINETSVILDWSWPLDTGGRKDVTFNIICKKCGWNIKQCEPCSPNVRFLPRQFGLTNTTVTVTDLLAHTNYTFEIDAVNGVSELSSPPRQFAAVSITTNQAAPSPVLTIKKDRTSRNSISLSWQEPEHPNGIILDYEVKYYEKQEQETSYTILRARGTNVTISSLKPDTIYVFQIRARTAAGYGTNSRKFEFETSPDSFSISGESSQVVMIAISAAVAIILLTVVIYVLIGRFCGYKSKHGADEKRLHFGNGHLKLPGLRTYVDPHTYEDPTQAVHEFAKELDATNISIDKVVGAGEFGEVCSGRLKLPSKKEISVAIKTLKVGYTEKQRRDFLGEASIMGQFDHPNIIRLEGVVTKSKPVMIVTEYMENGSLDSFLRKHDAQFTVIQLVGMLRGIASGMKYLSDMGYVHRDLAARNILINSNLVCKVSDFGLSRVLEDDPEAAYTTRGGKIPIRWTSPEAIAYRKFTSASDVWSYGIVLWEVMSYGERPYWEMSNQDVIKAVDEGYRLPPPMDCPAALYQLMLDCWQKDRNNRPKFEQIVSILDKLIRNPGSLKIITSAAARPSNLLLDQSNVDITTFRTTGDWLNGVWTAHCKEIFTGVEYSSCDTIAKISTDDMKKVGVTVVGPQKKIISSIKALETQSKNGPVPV

TIE1 = target: T19, TIE1 (Homo sapiens, UniProt P35590); type: binding; details: read-out: % Ctrl
T19 construct: purchased DiscoveRx KINOMEscan

EPHB6 = target: T20, EPHB6 (Homo sapiens, UniProt O15197); type: binding; details: read-out: % Ctrl
T20 construct: purchased DiscoveRx KINOMEscan

ABL1(Q252H)-nonP = target: T21, ABL1(Q252H)-nonP (Homo sapiens, UniProt P00519, Q252H); type: binding; details: read-out: % Ctrl
T21 construct: purchased DiscoveRx KINOMEscan

RSK2(KD1-N-t.) = target: T22, RSK2(KD1-N-t.) (Homo sapiens, UniProt P51812); type: binding; details: read-out: % Ctrl
T22 construct: RSK2(KD1-N-t.); purchased DiscoveRx KINOMEscan

MET = target: T23, MET (Homo sapiens, UniProt P08581); type: binding; details: read-out: % Ctrl
T23 construct: purchased DiscoveRx KINOMEscan
T23 sequence (P08581 25-1390): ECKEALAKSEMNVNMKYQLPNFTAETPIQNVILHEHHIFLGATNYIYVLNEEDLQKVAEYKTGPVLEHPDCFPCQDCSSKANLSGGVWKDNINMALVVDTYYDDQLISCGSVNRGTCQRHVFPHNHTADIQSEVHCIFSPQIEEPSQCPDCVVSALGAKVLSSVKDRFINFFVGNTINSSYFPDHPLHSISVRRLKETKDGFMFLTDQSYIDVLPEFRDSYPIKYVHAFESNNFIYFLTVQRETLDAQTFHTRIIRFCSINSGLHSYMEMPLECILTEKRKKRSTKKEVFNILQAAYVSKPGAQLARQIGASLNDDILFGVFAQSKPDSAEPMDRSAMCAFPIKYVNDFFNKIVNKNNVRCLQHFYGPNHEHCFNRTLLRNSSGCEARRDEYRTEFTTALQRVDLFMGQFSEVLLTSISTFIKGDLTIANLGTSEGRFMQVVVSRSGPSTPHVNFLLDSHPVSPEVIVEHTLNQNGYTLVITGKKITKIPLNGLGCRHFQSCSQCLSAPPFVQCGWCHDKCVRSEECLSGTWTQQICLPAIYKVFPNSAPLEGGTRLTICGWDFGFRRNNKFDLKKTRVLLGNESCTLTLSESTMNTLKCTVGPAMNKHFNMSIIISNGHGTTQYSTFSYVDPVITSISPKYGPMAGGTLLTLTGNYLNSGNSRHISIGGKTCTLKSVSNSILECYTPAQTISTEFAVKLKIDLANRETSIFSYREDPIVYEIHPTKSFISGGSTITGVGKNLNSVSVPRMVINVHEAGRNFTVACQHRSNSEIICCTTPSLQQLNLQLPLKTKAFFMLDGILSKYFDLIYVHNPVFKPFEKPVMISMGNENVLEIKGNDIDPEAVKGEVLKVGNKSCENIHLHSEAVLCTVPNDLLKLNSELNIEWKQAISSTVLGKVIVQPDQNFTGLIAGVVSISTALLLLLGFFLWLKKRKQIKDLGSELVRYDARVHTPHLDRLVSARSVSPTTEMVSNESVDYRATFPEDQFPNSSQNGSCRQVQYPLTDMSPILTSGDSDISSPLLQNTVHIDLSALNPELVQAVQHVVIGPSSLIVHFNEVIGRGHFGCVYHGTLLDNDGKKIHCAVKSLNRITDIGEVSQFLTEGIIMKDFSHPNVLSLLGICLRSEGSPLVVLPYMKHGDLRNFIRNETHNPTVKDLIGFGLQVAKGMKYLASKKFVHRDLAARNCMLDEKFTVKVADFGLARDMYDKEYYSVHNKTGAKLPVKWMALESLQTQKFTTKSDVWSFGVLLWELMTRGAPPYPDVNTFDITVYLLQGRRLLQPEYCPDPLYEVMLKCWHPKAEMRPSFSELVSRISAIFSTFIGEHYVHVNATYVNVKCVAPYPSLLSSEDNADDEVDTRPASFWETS

ACVR2A = target: T24, ACVR2A (Homo sapiens, UniProt P27037); type: binding; details: read-out: % Ctrl
T24 construct: purchased DiscoveRx KINOMEscan
T24 sequence (P27037 20-513): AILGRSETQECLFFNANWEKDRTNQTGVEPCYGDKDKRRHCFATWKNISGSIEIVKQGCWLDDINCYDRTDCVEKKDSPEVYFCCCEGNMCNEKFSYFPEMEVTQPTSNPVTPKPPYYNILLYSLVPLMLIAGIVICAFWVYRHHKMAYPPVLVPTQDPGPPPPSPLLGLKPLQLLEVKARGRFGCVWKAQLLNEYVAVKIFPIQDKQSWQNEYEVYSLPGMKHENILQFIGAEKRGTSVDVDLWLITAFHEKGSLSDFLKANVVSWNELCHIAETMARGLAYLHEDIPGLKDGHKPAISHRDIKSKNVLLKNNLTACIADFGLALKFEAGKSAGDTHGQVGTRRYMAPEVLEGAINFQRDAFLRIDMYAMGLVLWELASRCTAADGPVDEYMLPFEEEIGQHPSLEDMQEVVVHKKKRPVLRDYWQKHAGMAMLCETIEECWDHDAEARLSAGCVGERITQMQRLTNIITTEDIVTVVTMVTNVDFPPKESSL

FLT3-autoi. = target: T25, FLT3-autoi. (Homo sapiens, UniProt P36888); type: binding; details: read-out: % Ctrl
T25 construct: purchased DiscoveRx KINOMEscan

PCTK2 = target: T26, PCTK2 (Homo sapiens, UniProt Q00537); type: binding; details: read-out: % Ctrl
T26 construct: purchased DiscoveRx KINOMEscan

GRK7 = target: T27, GRK7 (Homo sapiens, UniProt Q8WTQ7); type: binding; details: read-out: % Ctrl
T27 construct: purchased DiscoveRx KINOMEscan

BTK = target: T28, BTK (Homo sapiens, UniProt Q06187); type: binding; details: read-out: % Ctrl
T28 construct: purchased DiscoveRx KINOMEscan

PLK2 = target: T29, PLK2 (Homo sapiens, UniProt Q9NYY3); type: binding; details: read-out: % Ctrl
T29 construct: purchased DiscoveRx KINOMEscan

PDPK1 = target: T30, PDPK1 (Homo sapiens, UniProt O15530); type: binding; details: read-out: % Ctrl
T30 construct: purchased DiscoveRx KINOMEscan

SRPK2 = target: T31, SRPK2 (Homo sapiens, UniProt P78362); type: binding; details: read-out: % Ctrl
T31 construct: purchased DiscoveRx KINOMEscan

EPHA5 = target: T32, EPHA5 (Homo sapiens, UniProt P54756); type: binding; details: read-out: % Ctrl
T32 construct: purchased DiscoveRx KINOMEscan

PIM3 = PIM3 (Homo sapiens, UniProt Q86V86); type: binding; set-up: purchased DiscoveRx KINOMEscan; details: read-out: % Ctrl
FLT3(ITD,D835V) = type: binding, human; details: 1 µM
MYO3B = target: T33, MYO3B (Homo sapiens, UniProt Q8WXR4); type: binding; details: read-out: % Ctrl
T33 construct: purchased DiscoveRx KINOMEscan

MLK3 = target: T34, MLK3 (Homo sapiens, UniProt Q16584); type: binding; details: read-out: % Ctrl
T34 construct: purchased DiscoveRx KINOMEscan

MST4 = target: T35, MST4 (Homo sapiens, UniProt Q9P289); type: binding; details: read-out: % Ctrl
T35 construct: purchased DiscoveRx KINOMEscan

MLCK = target: T36, MLCK (Homo sapiens, UniProt Q32MK0); type: binding; details: read-out: % Ctrl
T36 construct: purchased DiscoveRx KINOMEscan

PKNB(M.tuberculosis) = target: T37, PKNB(M.tuberculosis) (Mycobacterium tuberculosis, UniProt P9WI81); type: binding; details: read-out: % Ctrl
T37 construct: purchased DiscoveRx KINOMEscan
T37 sequence (P9WI81 whole entry): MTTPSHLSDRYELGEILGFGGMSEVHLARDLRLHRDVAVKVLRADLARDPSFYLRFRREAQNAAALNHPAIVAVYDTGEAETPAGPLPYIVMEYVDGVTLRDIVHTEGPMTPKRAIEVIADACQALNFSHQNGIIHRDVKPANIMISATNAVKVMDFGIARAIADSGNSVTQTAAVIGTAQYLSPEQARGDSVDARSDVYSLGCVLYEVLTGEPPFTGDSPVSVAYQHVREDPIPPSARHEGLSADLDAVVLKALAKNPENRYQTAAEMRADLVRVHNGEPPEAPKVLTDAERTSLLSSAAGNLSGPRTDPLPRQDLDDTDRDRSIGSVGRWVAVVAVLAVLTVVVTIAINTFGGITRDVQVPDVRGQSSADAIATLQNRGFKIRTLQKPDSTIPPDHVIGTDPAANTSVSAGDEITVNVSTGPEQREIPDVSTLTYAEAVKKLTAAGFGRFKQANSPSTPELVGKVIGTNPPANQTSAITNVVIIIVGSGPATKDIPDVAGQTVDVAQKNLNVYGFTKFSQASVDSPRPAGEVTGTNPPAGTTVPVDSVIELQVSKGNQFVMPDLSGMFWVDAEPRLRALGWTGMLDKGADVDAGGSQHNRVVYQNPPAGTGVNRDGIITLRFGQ

EGFR(L747-T751del,Sins) = type: binding, human; details: 1 µM
BUB1 = target: T38, BUB1 (Homo sapiens, UniProt O43683); type: binding; details: read-out: % Ctrl
T38 construct: purchased DiscoveRx KINOMEscan

MEK2 = target: T39, MEK2 (Homo sapiens, UniProt P36507); type: binding; details: read-out: % Ctrl
T39 construct: purchased DiscoveRx KINOMEscan

PIK3CD = target: T40, PIK3CD (Homo sapiens, UniProt O00329); type: binding; details: read-out: % Ctrl
T40 construct: purchased DiscoveRx KINOMEscan

NIM1 = target: T41, NIM1 (Homo sapiens, UniProt Q8IY84); type: binding; details: read-out: % Ctrl
T41 construct: purchased DiscoveRx KINOMEscan

Structure (SMILES): CN1CCC(CNc2ccc3ncc(C(=O)Nc4cccc(OC(F)(F)F)c4)n3n2)CC1 [Cpd 2]
- remaining binding at 1 µM (CASK): 93%
- remaining binding at 1 µM (CAMK1B): 97%
- remaining binding at 1 µM (VEGFR2): 100%
- remaining binding at 1 µM (IRAK3): 100%
- remaining binding at 1 µM (PAK1): 100%
- remaining binding at 1 µM (PRKG2): 100%
- remaining binding at 1 µM (EPHB3): 86%
- remaining binding at 1 µM (LRRK2): 68%
- remaining binding at 1 µM (MARK3): 100%
- remaining binding at 1 µM (PKAC-alpha): 99%
- remaining binding at 1 µM (CDK4): 100%
- remaining binding at 1 µM (FRK): 100%
- remaining binding at 1 µM (ABL1(F317L)-P): 100%
- remaining binding at 1 µM (MEK4): 100%
- remaining binding at 1 µM (AURKA): 96%
- remaining binding at 1 µM (ZAK): 96%
- remaining binding at 1 µM (FLT3(K663Q)): 92%
- remaining binding at 1 µM (EPHA3): 92%
- remaining binding at 1 µM (TIE1): 90%
- remaining binding at 1 µM (EPHB6): 92%
- remaining binding at 1 µM (ABL1(Q252H)-nonP): 94%
- remaining binding at 1 µM (RSK2(KD1-N-t.)): 89%
- remaining binding at 1 µM (MET): 100%
- remaining binding at 1 µM (ACVR2A): 100%
- remaining binding at 1 µM (FLT3-autoi.): 82%
- remaining binding at 1 µM (PCTK2): 100%
- remaining binding at 1 µM (GRK7): 41%
- remaining binding at 1 µM (BTK): 100%
- remaining binding at 1 µM (PLK2): 91%
- remaining binding at 1 µM (PDPK1): 100%
- remaining binding at 1 µM (SRPK2): 94%
- remaining binding at 1 µM (EPHA5): 100%
- remaining binding at 1 µM (PIM3): 18%
- % Ctrl (FLT3(ITD,D835V)): 9.1%
- remaining binding at 1 µM (MYO3B): 100%
- remaining binding at 1 µM (MLK3): 100%
- remaining binding at 1 µM (MST4): 100%
- remaining binding at 1 µM (MLCK): 100%
- remaining binding at 1 µM (PKNB(M.tuberculosis)): 90%
- % Ctrl (EGFR(L747-T751del,Sins)): 87%
- remaining binding at 1 µM (BUB1): 62%
- remaining binding at 1 µM (MEK2): 90%
- remaining binding at 1 µM (PIK3CD): 85%
- remaining binding at 1 µM (NIM1): 78%
